Structures can show the parent of a compound that is named as a salt.
Experiments:
[1] = target: T1, human B1R receptor (hB1R) (Homo sapiens, UniProt P46663); assay: Functional investigation on the bradykinin 1 receptor (B1R), FLIPR Ca2+ assay, hB1R cells; assay type: cell-based; details: test substance 10 μM; CHO K1 cells transfected with human B1R gene; Fluo-4 Ca2+ signal; agonist Lys-Des-Arg9-bradykinin at EC80; % of maximum achievable inhibition; read-out: B1R antagonism, human [10 μM] % inhibition
T1 construct: expressed in transfected cells; host or cells: CHO K1 cells
T1 sequence (P46663 1-353): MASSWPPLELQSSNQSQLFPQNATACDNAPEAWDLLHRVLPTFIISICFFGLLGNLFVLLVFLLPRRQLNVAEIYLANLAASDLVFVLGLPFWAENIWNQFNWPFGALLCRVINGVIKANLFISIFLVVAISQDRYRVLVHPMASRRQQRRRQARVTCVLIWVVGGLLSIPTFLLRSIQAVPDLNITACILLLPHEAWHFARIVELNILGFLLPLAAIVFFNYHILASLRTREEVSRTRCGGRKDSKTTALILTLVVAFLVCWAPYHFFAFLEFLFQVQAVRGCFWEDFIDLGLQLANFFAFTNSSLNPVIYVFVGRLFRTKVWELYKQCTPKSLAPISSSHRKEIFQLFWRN
Method in brief: (§1)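 CHO K1 cells stably expressing human or rat B1R, Fluo-4 loaded, read by FLIPR (λex 488, λem 540 nm). Test compound (10 μM) first gave % activation against Lys-Des-[MUT]-bradykinin ≥50 nM (hB1R) or Des-[MUT]-bradykinin 10 μM (rB1R). After 10–20 min, agonist at EC80 was added; % inhibition or IC50 from concentration series, n=2–3, N≥2.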

[2] = target: T2, B1R receptor of the rat (rB1R) (Rattus norvegicus, UniProt P97583); assay: Functional investigation on the bradykinin 1 receptor (B1R), FLIPR Ca2+ assay, rB1R cells; assay type: cell-based; details: test substance 10 μM; CHO K1 cells transfected with rat B1R gene; Fluo-4 Ca2+ signal; agonist Des-Arg9-bradykinin at EC80; % of maximum achievable inhibition; read-out: B1R antagonism, rat [10 μM] % inhibition
T2 construct: expressed in transfected cells; host or cells: CHO K1 cells
T2 sequence (P97583 1-337): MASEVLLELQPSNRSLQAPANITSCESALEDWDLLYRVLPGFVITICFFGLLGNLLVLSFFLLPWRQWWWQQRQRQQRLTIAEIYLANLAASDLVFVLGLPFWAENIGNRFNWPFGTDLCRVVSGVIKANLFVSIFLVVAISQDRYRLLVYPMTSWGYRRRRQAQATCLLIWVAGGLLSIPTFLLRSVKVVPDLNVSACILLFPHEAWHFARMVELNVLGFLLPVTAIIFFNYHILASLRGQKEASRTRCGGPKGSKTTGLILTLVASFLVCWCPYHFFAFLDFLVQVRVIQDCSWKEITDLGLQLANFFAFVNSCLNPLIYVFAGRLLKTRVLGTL
Method in brief: as §1

Structure (SMILES)	inhibition at 10 µM [1]	inhibition at 10 µM [2]
O=S(=O)(CCC[C@@H]1CCCN1S(=O)(=O)c1cccc2ccccc12)N1CCC(Oc2ccncc2)CC1 [Example 50, (S)-4-(1-(3-(1-(Naphthalen-1-ylsulfonyl)pyrrolidin-2-yl)propylsulfonyl)piperidin-4-yloxy)pyridine]	58%	71%
O=S(=O)(CCC[C@@H]1CCCN1S(=O)(=O)c1ccc(Cl)cc1Cl)N1CCC(Oc2ccncc2)CC1 [Example 51, (S)-4-(1-(3-(1-(2,4-Dichlorophenylsulfonyl)pyrrolidin-2-yl)propylsulfonyl)piperidin-4-yloxy)pyridine]	74%	93%
O=S(=O)(CCC[C@@H]1CCCN1S(=O)(=O)c1cccc(Cl)c1Cl)N1CCC(Oc2ccncc2)CC1 [Example 52, (S)-4-(1-(3-(1-(2,3-Dichlorophenylsulfonyl)pyrrolidin-2-yl)propylsulfonyl)piperidin-4-yloxy)pyridine]	71%	87%
Cc1cc(S(=O)(=O)N2CCC[C@H]2CCCS(=O)(=O)N2CCC(Oc3ccncc3)CC2)c(C)cc1Cl [Example 53, (S)-4-(1-(3-(1-(4-Chloro-2,5-dimethylphenylsulfonyl)pyrrolidin-2-yl)propylsulfonyl)piperidin-4-yloxy)pyridine]	74%	86%
COc1cc(C)c(S(=O)(=O)N2CCC[C@H]2CCCS(=O)(=O)N2[C@@H]3CC[C@H]2C[C@H](Oc2ccncc2)C3)c(C)c1 [Example 54, (1R,3R,5S)-8-(3-((S)-1-(4-Methoxy-2,6-dimethylphenylsulfonyl)pyrrolidin-2-yl)propylsulfonyl)-3-(pyridin-4-yloxy)-8-azabicyclo[3.2.1]octane]	100%	98%
Cc1cccc(Cl)c1S(=O)(=O)N1CCC[C@H]1CCCS(=O)(=O)N1[C@@H]2CC[C@H]1C[C@H](Oc1ccncc1)C2 [Example 55, (1R,3R,5S)-8-(3-((S)-1-(2-Chloro-6-methylphenylsulfonyl)pyrrolidin-2-yl)propylsulfonyl)-3-(pyridin-4-yloxy)-8-azabicyclo[3.2.1]octane]	98%	98%
O=S(=O)(CCC[C@@H]1CCCN1S(=O)(=O)c1ccccc1C(F)(F)F)N1[C@@H]2CC[C@H]1C[C@H](Oc1ccncc1)C2 [Example 56, (1R,3R,5S)-3-(Pyridin-4-yloxy)-8-(3-((S)-1-(2-(trifluoromethyl)phenylsulfonyl)pyrrolidin-2-yl)propylsulfonyl)-8-azabicyclo[3.2.1]octane]	95%	99%
O=S(=O)(CCC[C@@H]1CCCN1S(=O)(=O)c1ccc2ccccc2c1)N1[C@@H]2CC[C@H]1C[C@H](Oc1ccncc1)C2 [Example 57, (1R,3R,5S)-8-(3-((S)-1-(Naphthalen-2-ylsulfonyl)pyrrolidin-2-yl)propylsulfonyl)-3-(pyridin-4-yloxy)-8-azabicyclo[3.2.1]octane]	25%	54%
O=S(=O)(CCC[C@@H]1CCCN1S(=O)(=O)c1cccc2ccccc12)N1[C@@H]2CC[C@H]1C[C@H](Oc1ccncc1)C2 [Example 58, (1R,3R,5S)-8-(3-((S)-1-(Naphthalen-1-ylsulfonyl)pyrrolidin-2-yl)propylsulfonyl)-3-(pyridin-4-yloxy)-8-azabicyclo[3.2.1]octane]	56%	94%
O=S(=O)(CCC[C@@H]1CCCN1S(=O)(=O)c1ccc(Cl)cc1Cl)N1[C@@H]2CC[C@H]1C[C@H](Oc1ccncc1)C2 [Example 59, (1R,3R,5S)-8-(3-((S)-1-(2,4-Dichlorophenylsulfonyl)pyrrolidin-2-yl)propylsulfonyl)-3-(pyridin-4-yloxy)-8-azabicyclo[3.2.1]octane]	94%	96%
O=S(=O)(CCC[C@@H]1CCCN1S(=O)(=O)c1cccc(Cl)c1Cl)N1[C@@H]2CC[C@H]1C[C@H](Oc1ccncc1)C2 [Example 60, (1R,3R,5S)-8-(3-((S)-1-(2,3-Dichlorophenylsulfonyl)pyrrolidin-2-yl)propylsulfonyl)-3-(pyridin-4-yloxy)-8-azabicyclo[3.2.1]octane]	89%	100%
Cc1cc(S(=O)(=O)N2CCC[C@H]2CCCS(=O)(=O)N2[C@@H]3CC[C@H]2C[C@H](Oc2ccncc2)C3)c(C)cc1Cl [Example 61, (1R,3R,5S)-8-(3-((S)-1-(4-Chloro-2,5-dimethylphenylsulfonyl)pyrrolidin-2-yl)propylsulfonyl)-3-(pyridin-4-yloxy)-8-azabicyclo[3.2.1]octane]	75%	97%
Cc1cccc(Cl)c1S(=O)(=O)N1CCC[C@H]1CCCS(=O)(=O)N1CCC2(CCC(Oc3ccncc3)CC2)CC1 [Example 62, 3-(3-((S)-1-(2-Chloro-6-methylphenylsulfonyl)pyrrolidin-2-yl)propylsulfonyl)-9-(pyridin-4-yloxy)-3-azaspiro[5.5]undecane]	84%	104%
COc1cc(C)c(S(=O)(=O)N2CCC[C@H]2CCCS(=O)(=O)N2CCC3(CCC(N4CC(F)(F)C4)CC3)CC2)c(C)c1 [Example 63, 9-(3,3-Difluoroazetidin-1-yl)-3-(3-((S)-1-(4-methoxy-2,6-dimethylphenylsulfonyl)pyrrolidin-2-yl)propylsulfonyl)-3-azaspiro[5.5]undecane]	99%	102%
COc1cc(C)c(S(=O)(=O)N2CCC[C@H]2CCCS(=O)(=O)N2CCC3(CCN(c4ccncc4)CC3)CC2)c(C)c1 [Example 64, 3-(3-((S)-1-(4-Methoxy-2,6-dimethylphenylsulfonyl)pyrrolidin-2-yl)propylsulfonyl)-9-(pyridin-4-yl)-3,9-diazaspiro[5.5]undecane]	99%	99%
Cc1cccc(Cl)c1S(=O)(=O)N1CCC[C@H]1CCCS(=O)(=O)N1CCC2(CCN(c3ccncc3)CC2)CC1 [Example 65, 3-(3-((S)-1-(2-Chloro-6-methylphenylsulfonyl)pyrrolidin-2-yl)propylsulfonyl)-9-(pyridin-4-yl)-3,9-diazaspiro[5.5]undecane]	99%	97%
COc1cc(C)c(S(=O)(=O)N2CCC[C@H]2CCCS(=O)(=O)N2CCC3(CCC(Oc4ccncc4)CC3)CC2)c(C)c1 [Example 66, 3-(3-((S)-1-(4-Methoxy-2,6-dimethylphenylsulfonyl)pyrrolidin-2-yl)propylsulfonyl)-9-(pyridin-4-yloxy)-3-azaspiro[5.5]undecane hydrochloride]	100%	102%
O=S(=O)(CCC[C@@H]1CCCN1S(=O)(=O)c1cccc2ccccc12)N1CCC2(CCN(c3ccncc3)CC2)CC1 [Example 67, 3-(3-((S)-1-(Naphthalen-1-ylsulfonyl)pyrrolidin-2-yl)propylsulfonyl)-9-(pyridin-4-yl)-3,9-diazaspiro[5.5]undecane hydrochloride]	98%	97%
O=S(=O)(CCC[C@@H]1CCCN1S(=O)(=O)c1ccccc1C(F)(F)F)N1CCC2(CCN(c3ccncc3)CC2)CC1 [Example 68, 3-(Pyridin-4-yl)-9-(3-((S)-1-(2-(trifluoromethyl)phenylsulfonyl)pyrrolidin-2-yl)propylsulfonyl)-3,9-diazaspiro[5.5]undecane hydrochloride]	100%	96%
CC1(C)CCc2cc(S(=O)(=O)N3CCC[C@H]3CCCS(=O)(=O)N3CCC(Oc4ccncc4)CC3)ccc2O1 [Example 69, (S)-4-(1-(3-(1-(2,2-Dimethylchroman-6-ylsulfonyl)pyrrolidin-2-yl)propylsulfonyl)piperidin-4-yloxy)pyridine]	33%	12%
O=S(=O)(CCC[C@@H]1CCCN1S(=O)(=O)Cc1cccc(Cl)c1)N1CCC(Oc2ccncc2)CC1 [Example 70, (S)-4-(1-(3-(1-(3-Chlorobenzylsulfonyl)pyrrolidin-2-yl)propylsulfonyl)piperidin-4-yloxy)pyridine]	26%	32%
O=S(=O)(CCC[C@@H]1CCCN1S(=O)(=O)c1ccc(C(F)(F)F)cc1Cl)N1CCC(Oc2ccncc2)CC1 [Example 71, (S)-4-(1-(3-(1-(2-Chloro-4-(trifluoromethyl)phenylsulfonyl)pyrrolidin-2-yl)propylsulfonyl)piperidin-4-yloxy)pyridine]	30%	39%

Source: patent publication US8119805B2, “Substituted disulfonamide compounds” (Gruenenthal GmbH, priority 2008, dated 2012)
